Earlier results, collected in article PMC3145338 (Journal of the American Chemical Society, 2011).
Where two headings read alike, the source gives them in different places. Marks after values point to notes of the source that are not given here.

Settings: BCA; for Kd: read-out: Kd^surf
[1] = SAM ligand 2, χ = 0.05, ref [Mrskich, 1995]
[2] = SAM ligand 2, ref [Lahiri, 1999a]
[3] = SAM ligand 2, ref [Lahiri, 1999b]

Kd [1]: 260 nM
Kd [2]: 150 nM
Kd [3]: 560 nM
Substance: BCA: bovine carbonic anhydrase
koff^surf [1]: 5.4 ^e 10^−3 s^−1
kon^surf [1]: 1.9 ^e 10^4 M^−1 s^−1
ΔG°surf [1]: −9.0 ^e kcal mol^−1
koff^surf [2]: 5.3 ^e 10^−3 s^−1
kon^surf [2]: 3.5 ^e 10^4 M^−1 s^−1
ΔG°surf [2]: −9.3 ^e kcal mol^−1
koff^surf [3]: 5.4 ^e 10^−3 s^−1
kon^surf [3]: 0.9 ^e 10^4 M^−1 s^−1
ΔG°surf [3]: −8.5 ^e kcal mol^−1
koff^surf (mixed SAMs χ = 0.05, ref Mrksich et al. [10]): 0.0054 s⁻¹
